Assay results from patent US20090215851A1, “Method of Preparing a Porphyrin Derivative, a Porphyrin Derivative, Use of Said Porphyrin derivative and a pharmaceutical composition containing said porphyrin derivative” (PHOTOBIOCHEM N.V., priority 2005, published 2009).

Legend:
[1] = tested on: A 549 lung carcinoma cells; assay: Dark toxicity test, MTT assay; type: cell-based; conditions: overnight in the dark at 37° C; concentrations up to 30 μg/ml
Experimental: First a toxicity test of compound 5 in cultures of A 549 lung carcinoma cells (American Type Culture Collection) was carried out in the dark. The cells were incubated in a medium containing compound 5 at various concentrations. The cultures were left overnight in the dark at 37° C. Using the MTT (3-(4,5-dimethylthiazol-2-yl)-2,5-diphenyltetrazolium bromide) assay based on the methods of Tada et al (J. Immunol. Meth., 1986, 93, pp. 157-165) and J. Carmichael et al (Cancer Res., 1987, 47, pp. 936-942.) the cell survival was obtained as a percentage of untreated cells of control (FIG. 2). Even at concentrations up to 30 μg/ml in the medium cell survival was complete (within the experimental error), showing that compound 5 is essentially not toxic towards the lung carcinoma cells in the dark.

[2] = tested on: A 549 lung carcinoma cells; assay: Photodynamic cytotoxicity after illumination with white halogen light, MTT assay; type: cell-based; conditions: 0.10 μg/ml
[3] = Photochemical singlet oxygen generation (emission at 1270 nm after laser excitation in toluene); type: physicochemical; conditions: laser excitation 532 nm, singlet oxygen generating conditions
Experimental: Compound B dissolved in toluene was excited with a 9 mJ, 15 ns laser pulse at 532 nm from a home-built Q-switched frequency doubled Nd:YAG laser operating at 10 Hz. Emission from singlet oxygen at 1270 nm was detected at 90° to the quartz cuvette by an InGaAs photodiode, amplified and then signal-averaged (256 shots) on a digital oscilloscope (HP infinium). A 1260 nm interference filter (FWHM=75 nm) was used to protect the detector from laser light and sensitizer fluorescence. Typical decay times were 28±1 μs, which is characteristic for singlet oxygen decay in toluene (M. Okamoto et al, J. Phys. Chem., 1993, 97, pp. 177-180.) Tetraphenylporphyrin was used as a standard to determine the relative singlet oxygen yield (ΦΔ) (F. Wilkinson, et al, J. Phys. Chem. Ref. Data., 1993, 22, pp. 113-2162.). The relative quantum yield for compound 5 in air saturated toluene was 0.72. […] This stability of the compound according to the invention as exemplified by compound 5 towards singlet oxygen is surprising. In many porphyrins with appending double bonds the double bond reacts chemically with the singlet oxygen generated by the system. […]

CAM blood vessels = assay: AMD model: CAM (chorioallantoic membrane) model in fertilized chicken eggs, PDT; type: in vivo
Experimental: Age-related Macula Degeneration (AMD) is an eye affliction that eventually leads to blindness. For studies to treat this affliction, an AMD model exists, the so-called CAM (chorioallantoic membrane) model in fertilized chicken eggs. The blood vessels in this chorioallantoic membrane mimic a number of relevant features characteristic for the blood vessels in the eye involved in causing AMD. Experiments with compound 7 were performed at the department of Professor Hubert van den Bergh of the EPFL in Lausanne. Different doses of compound 7 (dissolved in Water:PEG-400:1-Methyl-2-pyrrolidone (50:30:20 v/v), pH 8.1) were injected in the CAM blood vessels and the vessels were illuminated after an 1 minute time-to-treat interval using different amounts of light energy from a far red light source. In the experiments, Visudyne™ (which has an absorption peak at 690 nm), the only photosensitizer approved for clinical use in AMD, was used as the control.
Compound 7 was as potent (already with a low light dose of 24 J/cm^2 and 1 mg/kg of body weight of photosensitizer 7 the desired grade 3 vessel damage could be obtained) as Visudyne™ in closing blood vessels in this model. […] (Legend: A: Compound 7 fluorescence angiography before PDT; B: compound 7 fluorescence angiography during PDT, shown in the circle is the red light irradiation area; C: sulforhodamine 101 fluorescence angiography 18 hours post-treatment).

[4] = tested on: subcutaneous mammary CaNT tumors; assay: Mouse tumor model, PDT; type: in vivo; conditions: for persistence of phototoxic effect with time after injection (FIG. 9): different intervals between injection and illumination
Experimental: Experiments were performed to investigate the suitability of compound 7 for the photodynamic therapy (PDT) treatment of tumors, in particular subcutaneous mammary CaNT tumors. These experiments were performed by Photopharmica Ltd. under the guidance of Professor Stan Brown in the Centre for Photobiology and Photodynamic Therapy (Leeds, UK). Different doses of compound 7 (dissolved in Water:PEG-400:1-Methyl-2-pyrrolidone (50:30:20 v/v), with a maximum concentration of 0.5 mg/ml at pH 8.1) were intravenously injected and tumors were illuminated with red light (685±15 nm, 60 J/cm^2, 50 mW/cm^2) at different intervals after injection.

## 2′-cyano-8′-formyl-N-methyl-1,1a,5a,6-tetrahydroacrido-[4,5,5a,6-bcd]-annulated 2,3-dihydromesoporphyrin dimethylester [compound 5]
[1]
  cell survival as a percentage of untreated cells (dark toxicity): complete
[2]; 4 hours incubation in the dark, then white halogen light 30 mW/cm^2 (270 kJ/m^2)
  lung carcinoma cells killed: 70%
[2]; 4 hours incubation, white halogen light 30 mW/cm^2 (270 kJ/m^2), FIG. 3
  photodynamic cytotoxicity compared with mTHPC (Foscan®): comparable
[3]
  photo degradation as measured by changes in the absorption spectrum: No photo degradation

## 2′-cyano-8′-formyl-N′-methyl-1′,1a′,5a′,6′-tetrahydroacrido[4,5,5a,6-bcd]-annulated 2,3-dihydromesoporphyrin dicarboxylic acid [compound 7]
CAM blood vessels; 12 J/cm^2 at 1 mg/kg body weight, angiography 18 hours post-treatment
  effect of PDT on small CAM blood vessels (FIG. 7): closing of the small CAM blood vessels
CAM blood vessels; CAM model, far red light
  potency in closing blood vessels compared with Visudyne™: as potent
CAM blood vessels; fluorescence microscopy
  leakage from the CAM blood vessels compared with Visudyne™: much less leakage
CAM blood vessels; light dose 24 J/cm^2, 1 mg/kg of body weight, 1 minute time-to-treat interval
  vessel damage grade: 3 grade
[4]; after light treatment
  damage to internal tissue surrounding the tumor: comparable to Photofrin™
  damage to the skin overlaying the tumor, in contrast to Photofrin™: less damage
[4]; at the effective tumor dose, within 24 hours after drug administration
  skin photosensitivity: lacking skin photosensitivity
[4]
  persistence of phototoxic effect with time after injection (FIG. 9): vanishes rapidly in a couple of hours
[4]; drug-to-light interval 2 minutes
  PDT effect, light 2 minutes after injection: already present immediately
[4]; drug-to-light interval 180 minutes
  PDT effect, light 180 minutes after injection: virtually absent
[4]; intravenous, red light 685±15 nm, 60 J/cm^2, 50 mW/cm^2
  dose with good tumor killing potential in vivo: around 2.5 mg/kg
[4]; treatment with light a couple of hours after injection
  effect on tumor-necrosis and skin damage, light a couple of hours after injection: no effect

## Oc1cccc(-c2c3nc(c(-c4cccc(O)c4)c4ccc([nH]4)c(-c4cccc(O)c4)c4nc(c(-c5cccc(O)c5)c5ccc2[nH]5)CC4)C=C3)c1 [Foscan, mTHPC, reference compound]
[4]; mouse tumor model, estimated
  potency relative to compound 7: more potent than compound 7

## Photofrin™ [reference compound]
[4]; % necrotic area versus dose
  dose needed for the same percentage of necrotic area (FIG. 8), compared with compound 7: requires a higher dose for the same effect
[4]
  persistence of phototoxic effect with time after injection (FIG. 9): remains phototoxic after several hours
[4]; mouse tumor model, estimated
  potency relative to compound 7 (fold): 2.5 times less potent than compound 7
